Values of other authors as cited in patent publication US11384062B2 (CombiPhos Catalysts, Inc., priority 2017, dated 2022).
Where two headings read alike, the source gives them in different places.

Key:
PARP = conditions: read-out: EC50, inhibition of PARP activity; whole cell assay; cited from earlier work
[1] = system: cancer cells with mutant BRCA-1 and BRCA-2; conditions: read-out: CC50, inhibition of proliferation; cited from earlier work
[2] = system: BRCA-1 deficient cancer xenograft; conditions: cited from earlier work
[3] = system: CAPAN-1 pancreatic cancer cell xenograft; conditions: 80 mg/kg qd, oral dosing, for two, three, or four weeks; cited from earlier work
[4] = system: human tumor xenografts, p53 wild type and p53 mutant; conditions: variety of human tumor xenografts; cited from earlier work
recurrent ovarian cancer = conditions: cited from earlier work
[5] = dosed IV to bile duct cannulated rats; cited from earlier work

Compound	EC50 (PARP)	CC50 [1]	tumor growth ([2]; 80 mg/kg qd, oral dosing, after one or two weeks of treatment)	tumor growth ([2]; after four week treatment)	tumor growth ([2]; continuous daily dosing for three or four weeks)	tumor growth inhibition [3]	effect on radiation response [4]	median PFS (recurrent ovarian cancer; germline BRCA mutant patients)	median PFS (recurrent ovarian cancer; non-gBRCAmut cohort, HRD-positive tumors)	median PFS (recurrent ovarian cancer; overall non-germline BRCA mutant cohort)	discontinuation rate (recurrent ovarian cancer; patients)	treatment-emergent grade 3/4 adverse event: anemia (recurrent ovarian cancer; patients)	treatment-emergent grade 3/4 adverse event: neutropenia (recurrent ovarian cancer; patients)	treatment-emergent grade 3/4 adverse event: thrombocytopenia (recurrent ovarian cancer; patients)	recovered radioactivity as the parent drug [5]
NC(=O)c1cccc2cn(-c3ccc([C@@H]4CCCNC4)cc3)nc12 [niraparib, (S)-2-(4-(piperidin-3-yl)phenyl)-2H-indazole-7-carboxamide]	[…]	10 to 100 nM	significant inhibition of tumor growth	complete and sustained regression	tumor shrinkage	~60%	strongly enhances the effect of radiation	21.0 months	12.9 months	9.3 months	14.7%	24.8%	11.2%	28.3%	–
NC(=O)c1cccc2cn(-c3ccc([C@@H]4CCCNC4)cc3)nc12 [[^14C]-niraparib]	–	–	–	–	–	–	–	–	–	–	–	–	–	–	45%
